Reference: ChEMBL document CHEMBL1126485, “Synthesis of nucleoside analogues with a 1,5-anhydrohexitol moiety” (1993)

What was measured:
[1] = Concentration required for inhibition of proliferation of herpes simplex virus type I at 0.07 ug/mL.; assay type: functional; details: Human alphaherpesvirus 1
Human alphaherpesvirus 2 = assay: Concentration required for inhibition of proliferation of herpes simplex virus type II at 0.07 ug/mL.; assay type: functional

Q: Which inhibition at 0.07 µg/mL [1] does the source give for `O=c1[nH]c(=O)n(C2COC(CO)C(O)C2)cc1I` (configuration not stated) here?
A: Its inhibition at 0.07 µg/mL is 50%.

Q: What about the inhibition at 0.07 µg/mL (Human alphaherpesvirus 2) of the same molecule?
A: The inhibition at 0.07 µg/mL was 50%.
